Measurements reported in US4103011A, “Novel penicillin compounds and process for preparation thereof” (priority 1976, dated 1978).
Where a name gives a salt, the structure may show the parent alone. Read-outs that look alike come from different tables or passages of the source.

Legend:
mice = conditions: mice
[1] = system: Staphylococcus aureus No. 50774; assay: In vivo efficacy against systemic infection; design: species or system male mice (ddY); conditions: NO.50774, in Mus musculus, 336 h, sc, twice, about 5 minutes and 6 hours after infection, read-out: ED50 (median effective dose)
Method in brief: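 Male ddY mice (~20 g) infected intravenously with 50 to 100 LD50 (about 5 × 10^8 cells/mouse) of S. aureus No. 50774 in saline. Compounds in water or aqueous sodium carbonate (pH 8-9) dosed twice, about 5 minutes and 6 hours post-infection; ED50 (mg/kg) by Behrens-Kaerber method.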

[2] = system: Pseudomonas aeruginosa No. 12; assay: In vivo efficacy against systemic infection; design: species or system male mice (ddY); conditions: NO.12, in Mus musculus, twice, about 5 minutes and 6 hours after infection, read-out: ED50 (median effective dose)
Method in brief: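 Male ddY mice (about 20 g) infected intraperitoneally with a Pseudomonas aeruginosa No. 12 suspension. Compounds in deionized water were given twice, about 5 minutes and 6 hours after infection. Effective dose calculated by the Behrens-Kaerber method.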

in vivo = conditions: mouse
[3] = system: bacteria (systemic infection); assay: In vivo efficacy against systemic infection, overall conclusions; design: species or system male mice (ddY); conditions: Table II
Experimental: The contents in the vials (No. A and No. C) prepared in Example 17 were each dissolved in deionized water, and injections having various concentrations were prepared.
Compounds A, B, F, G, H and M were dissolved in deionized water. Compounds C, D, E and J were dissolved in an aqueous solution of sodium carbonate (pH 8-9) to prepare injections of various concentrations.
Each of the injections was administered to mice under the conditions described below, and the median effective doses (ED50) obtained are shown in Table II.

[4] = system: Staphylococcus aureus 209P JC-1; assay: In vitro antibacterial activity (MIC); format: cell-based; conditions: Staphylococcus aureus 209P JC-1; read-out: minimum inhibitory concentration (MIC)
From the text: (§1) In vitro antibacterial activity against 20 strains of bacteria
(§2) The numerals in the table show minimum inhibitory concentrations (MIC)

Escherichia coli P-5101 [5] = assay: In vitro antibacterial activity (MIC); format: cell-based; conditions: Escherichia coli, P5101, read-out: minimum inhibitory concentration (MIC)
From the text: as §1, §2

[6] = system: Streptococcus faecalis P-2473; assay: In vitro antibacterial activity (MIC); format: cell-based; conditions: Enterococcus faecalis, P2473, read-out: minimum inhibitory concentration (MIC)
From the text: as §1, §2

[7] = system: Pseudomonas aeruginosa Tsuchijima; assay: In vitro antibacterial activity (MIC); format: cell-based; conditions: Pseudomonas aeruginosa, read-out: minimum inhibitory concentration (MIC)
From the text: as §1, §2

[8] = system: Corynebacterium pyogenes C-21; assay: In vitro antibacterial activity (MIC); format: cell-based; conditions: Rhodococcus (subgen. Prescottella) equi, C21; Corynebacterium pyogenes C-21; read-out: minimum inhibitory concentration (MIC)
From the text: as §1, §2

Proteus rettgeri P-2503 = assay: In vitro antibacterial activity (MIC); format: cell-based; conditions: Providencia rettgeri, P2503, read-out: minimum inhibitory concentration (MIC)
From the text: as §1, §2

Escherichia coli P-140a = assay: In vitro antibacterial activity (MIC); format: cell-based
From the text: as §1, §2

[9] = system: Klebsiella pneumoniae No. 13; assay: In vitro antibacterial activity (MIC); format: cell-based; conditions: Klebsiella pneumoniae No. 13; read-out: minimum inhibitory concentration (MIC)
From the text: as §1, §2

[10] = system: Pseudomonas aeruginosa No.12; assay: In vitro antibacterial activity (MIC); format: cell-based; conditions: Pseudomonas aeruginosa, NO.12, read-out: minimum inhibitory concentration (MIC)
From the text: as §1, §2

Shigella flexneri 2a = assay: In vitro antibacterial activity (MIC); format: cell-based; conditions: read-out: minimum inhibitory concentration (MIC)
From the text: as §1, §2

[11] = system: Salmonella enteritidis No. 1891; assay: In vitro antibacterial activity (MIC); format: cell-based; conditions: Salmonella enterica; Salmonella enteritidis No. 1891; read-out: minimum inhibitory concentration (MIC)
From the text: as §1, §2

[12] = system: Enterobacter cloacae P-2540; assay: In vitro antibacterial activity (MIC); format: cell-based; conditions: Enterobacter cloacae, P2540, read-out: minimum inhibitory concentration (MIC)
From the text: as §1, §2

Proteus morganii Kono = assay: In vitro antibacterial activity (MIC); format: cell-based; conditions: Morganella morganii; Proteus morganii Kono; read-out: minimum inhibitory concentration (MIC)
From the text: as §1, §2

[13] = system: Streptococcus pyogenes 65A; assay: In vitro antibacterial activity (MIC); format: cell-based; conditions: Streptococcus pyogenes 65A; read-out: minimum inhibitory concentration (MIC)
From the text: as §1, §2

Proteus mirabilis P-2381 = assay: In vitro antibacterial activity (MIC); format: cell-based; conditions: P2381; Proteus mirabilis P-2381; read-out: minimum inhibitory concentration (MIC)
From the text: as §1, §2

[14] = system: Serratia mercescens IFO 3736; assay: In vitro antibacterial activity (MIC); format: cell-based; conditions: Serratia, IFO3736, read-out: minimum inhibitory concentration (MIC)
From the text: as §1, §2

[15] = system: Shigella flexneri 4a P-330; assay: In vitro antibacterial activity (MIC); format: cell-based; conditions: 4AP330, read-out: minimum inhibitory concentration (MIC)
From the text: as §1, §2

[16] = system: Staphylococcus aureus No. 50774; assay: In vitro antibacterial activity (MIC); format: cell-based; conditions: Staphylococcus aureus No. 50774; read-out: minimum inhibitory concentration (MIC)
From the text: as §1, §2

[17] = system: Salmonella typhimurium S-9; assay: In vitro antibacterial activity (MIC); format: cell-based; conditions: Salmonella enterica; Salmonella typhimurium S-9; read-out: minimum inhibitory concentration (MIC)
From the text: as §1, §2

[18] = system: Escherichia coli NIHJ JC-2; assay: In vitro antibacterial activity (MIC); format: cell-based; conditions: Escherichia coli, NIHJJC2, read-out: minimum inhibitory concentration (MIC)
From the text: as §1, §2

Escherichia coli P-5101 [19] = assay: In vivo efficacy against systemic infection; design: species or system male mice (ddY); conditions: P5101, in Mus musculus, 168 h, twice, about 5 minutes and 6 hours after infection, read-out: ED50 (median effective dose)
Method in brief: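 Male ddY mice of about 20g were infected intraperitoneally with E. coli P-5101 suspended in tryptosoy broth. Compounds dissolved in deionized water were given twice, about 5 minutes and 6 hours after infection. Effective dose was calculated by the Behrens-Kaerber method.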

CCN1CCN(C(=O)N[C@@H](C(=O)N[C@@H]2C(=O)N3[C@@H]2SC(C)(C)[C@@H]3C(=O)O)c2ccccc2)C(=O)C1=O [Compound H, D-α-(4-Ethyl-2,3-dioxopiperazine-1-carboxamido)-benzylpenicillin sodium salt]
LD50 compared with compounds 1 and 2 (in words) (mice): almost the same | ED50 [1]: 8.8 mg/kg | ED50 ([2]; iv): > 100 mg/kg | ED50 ([2]; sc): 141 mg/kg | LD50 at 168 h (in vivo; iv): > 4000 mg/kg | LD50 at 168 h (in vivo; sc): > 6000 mg/kg | selectivity ratio (in vivo; sc): > 42 | antibacterial activity in vivo as fraction of that of the penicillin compounds of this invention [3]: one-twentieth to one-seventieth | MIC [4]: 0.39 µg/mL | MIC (Escherichia coli P-5101 [5]): 1.56 µg/mL | MIC [6]: 3.13 µg/mL | MIC [7]: 1.56 µg/mL | MIC [8]: 6.25 µg/mL | MIC (Proteus rettgeri P-2503): 1.56 µg/mL | minimum inhibitory concentration (MIC) (Escherichia coli P-140a): 12.5 µg/mL | MIC [9]: 6.25 µg/mL | MIC [10]: 3.13 µg/mL | MIC (Shigella flexneri 2a): 1.56 µg/mL | MIC [11]: 0.39 µg/mL | MIC [12]: 3.13 µg/mL | MIC (Proteus morganii Kono): 0.78 µg/mL | MIC [13]: 0.025 µg/mL | MIC (Proteus mirabilis P-2381): 0.78 µg/mL | MIC [14]: 0.78 µg/mL | MIC [15]: 3.13 µg/mL | MIC [16]: 0.78 µg/mL | MIC [17]: 0.39 µg/mL | MIC [18]: 3.13 µg/mL | ED50 (Escherichia coli P-5101 [19]; iv): 43.3 mg/kg | ED50 (Escherichia coli P-5101 [19]; sc): 26.3 mg/kg
